Consider 50 molecules from patent US20110053897A1 (IRM LLC, priority 2009, published 2011).

Broadly, the IC50 is the midpoint of a concentration-inhibition curve.

The structures appear in SMILES notation.

The first assay deals with T1, Syk kinase (Homo sapiens, UniProt P43405).
T1 construct: purchased
The assay is described as follows: Syk kinase inhibition, Caliper LabChip off-chip mobility-shift kinase assay. The assay is classed as biochemical. The following applies: Caliper LabChip assay; read-out: Syk Enzyme IC50. The method, boiled down: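 Purified Syk pre-incubated 15 min with compound in 100 mM HEPES pH 7.5, 1 mM DTT, 10 mM MgCl2 or MnCl2, 0.002% Brij-35, then 1.5 μM fluorescein peptide and ATP at apparent KM added; 1–1.5 h at room temperature, 4% DMSO, EDTA stop. Microfluidic mobility-shift product/substrate conversion gave % inhibition; IC50 from 12-point series (10–0.00003 μM) by 4-parameter fit.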
Regarding `CC(C)(C)Nc1nc(-c2cnc(N)nc2)cc2ccn(C[C@H](O)CO)c(=O)c12` [compound 934], the half-maximal inhibitory concentration (IC50) is 0.009 µM.

As for `CCC(O)c1ccnc(Nc2cc3ccn(CCO)c(=O)c3c(NC(C)(C)C)n2)c1` (centres unmarked) [compound 710], the IC50 was 0.037 µM.

As for `CC(C)(C)Nc1nc(Nc2cc(CCO)ccn2)cc2ccn(CCO)c(=O)c12` [compound 857], the half-maximal inhibitory concentration (IC50) is 0.004 µM.

For the molecule `O=c1c2c(N[C@H]3CC[C@@H](O)CC3)nc(Nc3cnccn3)cc2ccn1CC(F)F` [compound 1022], the IC50 was 0.011 µM.

On to `CCC(O)(CC)c1ccnc(Nc2cc3ccn(CCO)c(=O)c3c(NC(C)(C)C)n2)c1` [compound 708], for which the IC50 came out at 0.595 µM.

In the case of `CC(C)(C)Nc1nc(Nc2cnccn2)cc2ccn(CCN3CCOCC3)c(=O)c12` [compound 998], the half-inhibitory concentration (IC50) turned out to be 0.205 µM.

`CC1(Cn2ccc3cc(-c4cnc(N)nc4)nc(NC4COC4)c3c2=O)COC1` [compound 773, 6-(2-Aminopyrimidin-5-yl)-2-((3-methyloxetan-3-yl)methyl)-8-(oxetan-3-ylamino)-2,7-naphthyridin-1(2H)-one]: the IC50 stood at 0.067 µM.

Regarding `CC(C)(C)Nc1nc(Nc2cc(OCCO)ccn2)cc2ccn(CCO)c(=O)c12` [compound 866], the IC50 was determined as 0.011 µM.

`Cn1cc(-c2ccnc(Nc3cc4ccn(CCO)c(=O)c4c(NC(C)(C)C)n3)c2)cn1` [compound 830]: the IC50 is 0.103 µM.

On to `CC1(Nc2nc(-c3cnc(N)nc3)cc3ccn(CC4CCOCC4)c(=O)c23)CCC1` [compound 930], for which the half-maximal inhibitory concentration (IC50) worked out at 0.081 µM.

For the molecule `C[C@@H](CO)Nc1nc(Nc2cnccn2)cc2ccn(CCC#N)c(=O)c12` [compound 1003], the IC50 came to 0.027 µM.

`CC(C)(C)CNc1nc(Nc2cnccn2)cc2ccn(CCO)c(=O)c12` [compound 898]: the IC50 came to 0.02 µM.

On to `CC(C)(C)CNc1nc(-c2cnc(N)nc2)cc2ccn(CCO)c(=O)c12` [compound 911], for which the IC50 came to 0.094 µM.

With `[2H]C([2H])([2H])n1ccc2cc(Nc3cnccn3)nc(N[C@@H](C)CO)c2c1=O` [compound 1050], the IC50 amounted to 0.0457 µM.

For `COCCn1ccc2cc(Nc3cnccn3)nc(N[C@H]3CC[C@@H](O)CC3)c2c1=O` [compound 1005], the half-inhibitory concentration (IC50) is 0.017 µM.

Regarding `CC(C)(C)Nc1nc(Nc2cnccn2)c(Cl)c2ccn(CCO)c(=O)c12` [compound 837], the half-inhibitory concentration (IC50) came out at 1.06 µM.

For `[2H]C([2H])([2H])n1ccc2cc(Nc3cnccn3)nc(N[C@H]3CC[C@@H](CO)C3)c2c1=O` [compound 986], the IC50 was 0.009 µM.

Consider `Cc1cc(Nc2cc3ccn(CCO)c(=O)c3c(NC(C)(C)C)n2)ncn1` [compound 886], for which the half-inhibitory concentration (IC50) is 0.06 µM.

Regarding `CCn1ccc2cc(Nc3cnccn3)nc(N[C@H]3CC[C@H](O)CC3)c2c1=O` [compound 949], the half-inhibitory concentration (IC50) is 0.05 µM.

On to `CCn1ccc2cc(Nc3cc(C)ccn3)nc(NC3CCC(C)(O)CC3)c2c1=O` (centres unmarked) [compound 951], for which the IC50 turned out to be 0.092 µM.

On to `CCn1ccc2cc(Nc3cc(C)ccn3)nc(N[C@@H]3CC[C@H](CO)C3)c2c1=O` (stereo in doubt) [compound 789], for which the half-inhibitory concentration (IC50) was 0.072 µM.

In the case of `O=c1c2c(N[C@H]3CC[C@@H](O)CC3)nc(Nc3cnccn3)cc2ccn1C1CS(=O)(=O)C1` [compound 1010], the IC50 is 0.01 µM.

Turning to `CC(C)(C)Nc1nc(Nc2cc(C3(C(=O)O)CC3)ccn2)cc2ccn(CCO)c(=O)c12` [compound 856], the IC50 amounted to 0.393 µM.

Still in this assay, the particulars now being: read-out: Syk Enzyme IC50.
Take `Cc1ccc(-c2cc3cc[nH]c(=O)c3c(Nc3ccc(C4CNC4)cc3)n2)cn1` [compound 131]: the IC50 was 0.111 µM.

For the molecule `CNC(=O)CN1CCC(c2ccc(Nc3nc(-c4cncc(OC)n4)cc4cc[nH]c(=O)c34)cc2C)CC1` [compound 135], the IC50 was determined as 0.048 µM.

With `CCOC(=O)/C=C/c1cc2cc[nH]c(=O)c2c(Nc2ccc(N3CCOCC3)cc2)n1` [compound 242], the IC50 came to 0.332 µM.

Take `Cc1ccnc(Nc2cc3cc[nH]c(=O)c3c(NC3CCN(C)CC3)n2)c1` [compound 550]: the IC50 stood at 0.111 µM.

Take `Cn1ccc2cc(Nc3ccccn3)nc(N)c2c1=O` [compound 572]: the IC50 was found to be 3.27 µM.

As for `Nc1ncc(-c2cc3ccn(CC4CC4(F)F)c(=O)c3c(Nc3ccc(N4CCOCC4)cc3)n2)cn1` (centres unmarked) [compound 4], the IC50 was determined as 0.489 µM.

With `O=c1[nH]ccc2cc(Nc3ccc(C(F)(F)F)cn3)nc(Nc3ccc(N4CCOCC4)cc3)c12` [compound 577], the IC50 was 0.76 µM.

As to `COCCN1CCN(c2n[nH]c3cc(Nc4nc(-c5cnc(OC)nc5)cc5cc[nH]c(=O)c45)ccc23)CC1` [compound 216], the IC50 was 0.037 µM.

Take `COc1cncc(-c2cc3cc[nH]c(=O)c3c(Nc3ccc(C4CCN(CC5CC5(F)F)CC4)c(C)c3)n2)n1` (centres unmarked) [compound 78]: the IC50 worked out at 0.129 µM.

Regarding `COc1cncc(-c2cc3cc[nH]c(=O)c3c(Nc3ccc(CCN4CCN(C(C)=O)CC4)cc3)n2)n1` [compound 45], the IC50 is 0.061 µM.

As for `C[C@H](CO)Nc1nc(Nc2ccccn2)cc2cc[nH]c(=O)c12` [compound 299], the IC50 worked out at 0.068 µM.

Consider `[2H]C([2H])([2H])n1ccc2cc(Nc3cnccn3)nc(N[C@@H](C)CO)c2c1=O` [compound 402], for which the 50% inhibitory concentration (IC50) turned out to be 0.0457 µM.

With `CCC(C)C(=O)N1CCC(c2ccc(Nc3nc(-c4cncc(OC)n4)cc4cc[nH]c(=O)c34)cc2C)CC1` (centres unmarked) [compound 76], the IC50 was determined as 0.225 µM.

On to `CN(C)[C@H]1CC[C@H](c2ccc(Nc3nc(-c4cncnc4)cc4cc[nH]c(=O)c34)cc2)CC1` [compound 92], for which the IC50 was determined as 0.045 µM.

Consider `CCn1ccc2cc(Nc3cnccn3)nc(N[C@H]3CCCC[C@H]3O)c2c1=O` (racemic) [compound 409], for which the concentration for half-maximal inhibition (IC50) came out at 0.128 µM.

For `O=c1[nH]ccc2cc(Nc3ccccn3)nc(NC3CCCC3)c12` [compound 296], the 50% inhibitory concentration (IC50) came out at 0.153 µM.

Consider `Cc1ccnc(Nc2cc3ccn(C)c(=O)c3c(NC(C)C)n2)c1` [compound 508], for which the half-inhibitory concentration (IC50) amounted to 0.153 µM.

In the case of `CCC(C(=O)OC)N1CCC(c2ccc(Nc3nc(-c4cncc(OC)n4)cc4cc[nH]c(=O)c34)cc2C)CC1` (centres unmarked) [compound 118], the IC50 was found to be 0.346 µM.

Regarding `Cc1cnc(Nc2cc3cc[nH]c(=O)c3c(Nc3ccc(C4CCN(C5CC5)CC4)c(C)c3)n2)cn1` [compound 248], the IC50 stood at 2.02 µM.

For the molecule `Cc1ccnc(Nc2cc3cc[nH]c(=O)c3c(N3CCOCC3)n2)c1` [compound 272], the IC50 stood at 0.278 µM.

Regarding `Nc1ncc(-c2cc3cc[nH]c(=O)c3c(N3CCCC3)n2)cn1` [compound 181], the IC50 worked out at 0.015 µM.

In the case of `CCN1CCN(CCc2ccc(Nc3nc(Nc4ccc(C(N)=O)cn4)cc4cc[nH]c(=O)c34)cc2)CC1` [compound 579], the IC50 turned out to be 0.113 µM.

With `Cc1cc(Nc2nc(Nc3cc(C(F)(F)F)ccn3)cc3cc[nH]c(=O)c23)ccc1C1CCN(C2CC2)CC1` [compound 255], the IC50 amounted to 0.434 µM.

In the case of `Cc1ccnc(Nc2cc3cc[nH]c(=O)c3c(NCCN(C)C)n2)c1` [compound 588], the half-inhibitory concentration (IC50) stood at 1.96 µM.

For `O=c1[nH]ccc2cc(C3CCNCC3)nc(Nc3ccc(N4CCOCC4)cc3)c12` [compound 2], the concentration for half-maximal inhibition (IC50) came to 0.249 µM.

For the molecule `COCC(C)(C)C(=O)N1CCC(c2ccc(Nc3nc(-c4cncc(OC)n4)cc4cc[nH]c(=O)c34)cc2C)CC1` [compound 8], the IC50 came out at 0.253 µM.

On to `COc1cncc(-c2cc3cc[nH]c(=O)c3c(Nc3ccc(C4CCN(C(=O)C(O)C(C)C)CC4)c(C)c3)n2)n1` (centres unmarked) [compound 6], for which the IC50 came to 0.398 µM.
